One data set has as its target T1, human GLP-1 receptor (Homo sapiens, UniProt P43220).
T1 construct: expressed in transfected cells; host or cells: HEK-293 Aurora CRE-BLAM cells
The data set can be described thus: In vitro potency assay (CRE-BLAM fluorescence assay). Type of data set: cell-based. The note with it: for In vitro activity relative to Val^8-GLP-1(7-37)OH: from EC50, HEK-293 Aurora CRE-BLAM cells, Val^8-GLP-1(7-37)OH control = 1; for potency higher than Val^8-GLP-1(7-37)OH: in vitro potency, approximate. The text has this:
The assay is discussed in more detail on page 17 and in example 3.
These HEK-293 cells have stably integrated a DNA vector having a cAMP response element (CRE) driving expression of the β-lactamase (BLAM) gene. […] The assay is further described in Zlokarnik, et al. (1998) Science 279:84-88 (See also Example 3).
The day after seeding, the medium is replaced with plasma free medium.

The conditions of data set [1]: cited from earlier work.

No end group written: not given here.

T1 sequence (P43220 24-463): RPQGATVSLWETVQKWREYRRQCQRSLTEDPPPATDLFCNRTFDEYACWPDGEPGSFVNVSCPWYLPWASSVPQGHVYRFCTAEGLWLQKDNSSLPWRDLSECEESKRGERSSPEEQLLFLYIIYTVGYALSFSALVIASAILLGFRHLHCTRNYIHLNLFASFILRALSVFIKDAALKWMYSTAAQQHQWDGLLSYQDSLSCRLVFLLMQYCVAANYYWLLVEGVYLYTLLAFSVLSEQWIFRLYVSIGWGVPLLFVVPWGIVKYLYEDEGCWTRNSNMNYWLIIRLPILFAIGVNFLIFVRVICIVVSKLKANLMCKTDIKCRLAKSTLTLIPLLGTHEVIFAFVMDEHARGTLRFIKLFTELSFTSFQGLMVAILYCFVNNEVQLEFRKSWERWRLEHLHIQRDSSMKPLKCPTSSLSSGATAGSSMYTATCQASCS

For “Arg^34Lys^26-(N-ε-(γ-Glu(N-α-hexadecanoyl)))-GLP-1(7-37) [reference compound]”, the “In vitro activity relative to Val^8-GLP-1(7-37)OH” value on human GLP-1 receptor is 1.92.

Exendin-4 [reference compound]: in the data set with human GLP-1 receptor, the “In vitro activity relative to Val^8-GLP-1(7-37)OH” value was 4.5 and the “potency higher than Val^8-GLP-1(7-37)OH” value was “approximately 5 fold”.

Take GLP-1(7-37)OH: the “intact GLP-1 levels” value in data set [1] (2.4 pmol/kg/min (Toft-Nielsen et al.)) was roughly 22.5 picomolar. For the same substance, in data set [1] (continuous administration 0.75 pmol/kg/min for 180 min, last 120 min of treatment (Naslund et al.)), the “plasma levels of intact GLP-1” value is “approximately 20 picomolar”.

Take “Gly^8-GLP-1(7-37)OH (HGEGTFTSDVSSYLEGQAAKEFIAWLVKGRG-OH; UniProt P01275 98-128, looked up, variant A8G) [GLP-1 analog]”: in the data set with human GLP-1 receptor, the “In vitro activity relative to Val^8-GLP-1(7-37)OH” value turned out to be 1.67.

Turning to Val^8-Arg^26-GLP-1(7-37)OH, the “In vitro activity relative to Val^8-GLP-1(7-37)OH” value at human GLP-1 receptor stood at 1.47.

As to Val^8-GLP-1(7-36)NH2, the “In vitro activity relative to Val^8-GLP-1(7-37)OH” value in the data set with human GLP-1 receptor came to 1.06.

On to Val^8-Glu^22-GLP-1(7-37)OH, for which, on human GLP-1 receptor, the “In vitro activity relative to Val^8-GLP-1(7-37)OH” value was determined as 3.33 and the “potency higher than Val^8-GLP-1(7-37)OH” value is reported as “approximately 3 fold”.

Val^8-Leu^16-GLP-1(7-37)OH: the “In vitro activity relative to Val^8-GLP-1(7-37)OH” value at human GLP-1 receptor was 1.13.

Consider Val^8-Lys^22-GLP-1(7-37)OH, for which, at human GLP-1 receptor, the “In vitro activity relative to Val^8-GLP-1(7-37)OH” value amounted to 1.22.

Val^8-Trp^12-GLP-1(7-37)OH: on human GLP-1 receptor, the “In vitro activity relative to Val^8-GLP-1(7-37)OH” value is 1.07.

In the case of Val^8-Tyr^12-GLP-1(7-37)OH, the “In vitro activity relative to Val^8-GLP-1(7-37)OH” value at human GLP-1 receptor turned out to be 1.73.

The values above are taken from US7989585B2, “Chronic treatment regimen using glucagon-like insulinotropic peptides” (Eli Lilly and Company, priority 2000, dated 2011).
